Measured values reported in PubChem BioAssay (NCI).
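All cell lines were grown in 96-well plates and treated with compound for 48 hours. At the TGI there is no net growth.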

Legend:
Test in all cases: NCI tumour cell line growth inhibition, 48 h
786-0 renal = system: 786-0 renal
A498 renal = system: A498 renal
BT-549 breast = system: BT-549 breast
HCT-116 colon = system: HCT-116 colon
HT29 colon = system: HT29 colon
MCF7 breast = system: MCF7 breast
NCI-H522 lung = system: NCI-H522 lung
PC-3 prostate = system: PC-3 prostate
RPMI-8226 leukemia = system: RPMI-8226 leukemia
SN12C renal = system: SN12C renal

SMILES	TGI (786-0 renal) [µM]	TGI (A498 renal) [µM]	TGI (BT-549 breast) [µM]	TGI (HCT-116 colon) [µM]	TGI (HT29 colon) [µM]	TGI (MCF7 breast) [µM]	TGI (NCI-H522 lung) [µM]	TGI (PC-3 prostate) [µM]	TGI (RPMI-8226 leukemia) [µM]	TGI (SN12C renal) [µM]
NC(Cc1ccc(S(=O)(=O)O)cc1)C(=O)NC(CCCCNC(=O)NCCCCC(NC(=O)C(N)Cc1ccc(S(=O)(=O)O)cc1)C(=O)NC(Cc1ccc(S(=O)(=O)O)cc1)C(=O)O)C(=O)NC(Cc1ccc(S(=O)(=O)O)cc1)C(=O)O (stereo not given)	> 100	> 100	> 100	> 100	> 100	> 100	> 100	> 100	> 100	> 100
CC(=O)OC1=c2ccccc2=C(O)C2C1C=NN2C(C)=O (stereo not given)	> 100	> 100	> 100	> 100	> 100	> 100	> 100	> 100	> 100	> 100
NCCSc1nc2ccccc2s1	71.5	90.7	93.8	> 100	> 100	98.1	75.7	> 100	95.7	> 100
Cc1cc(N(CCC#N)CCC#N)ccc1/C(N=Nc1ccc(Cl)cc1)=N\NC(=O)c1cc(Cl)ccc1O	> 100	> 100	> 100	> 100	> 100	> 100	37	> 100	> 100	> 100
O=P1(C(O)/C=C/c2ccccc2)N(Cc2ccccc2)[C@H](c2ccccc2)[C@@H](c2ccccc2)N1Cc1ccccc1 (stereo not given in full)	> 100	> 100	> 89.4	> 100	> 86.3	> 100	59.2	> 94.7	30.1	> 100
C=CCN1CCC(OC(=O)C(O)(C#CC)C2CCCC2)CC1 (stereo not given)	> 100	> 100	> 100	> 100	> 100	> 100	> 100	> 100	> 100	> 100
CC1(C)CC(=O)C(CCC(=O)/C=C/c2ccccc2)C(=O)C1	> 100	> 100	> 100	> 100	> 100	> 100	> 100	> 100	> 100	> 100
CCC1=NC(N/N=C/c2ccco2)=N/C1=C\c1ccccc1O	> 100	> 100	> 100	56.8	> 100	> 100	49.3	> 100	> 100	> 100
CCOC(=O)CN1C(=O)c2c(c(C)n(-c3ccccc3)c2C)C1=O	> 100	> 100	> 100	> 100	> 100	> 100	> 100	> 100	> 100	> 100
Cc1ccc(C2=Nc3cc(C)c(Cl)cc3S(=O)(=O)NN2)cc1	> 100	> 100	> 100	> 100	> 100	> 100	> 100	> 100	> 100	> 100
CC1=NCCN=C(C)C1N=Nc1ccc2nc(C)[nH]c2c1	33.5	18	28.2	38	50.9	30.1	61.8	22.3	17.4	30.9
CO/N=C(\C)c1ccc(Nc2c3ccccc3nc3occc23)cc1	6.67	9.94	21.3	12.1	2.16	1.59	0.311	49.3	12.1	22.6
O=C(CN1CCN(Cc2ccccc2)CC1)c1ccc2[nH]c(=O)oc2c1	> 100	> 100	> 100	> 100	> 100	> 100	> 100	> 100	> 100	> 100
N#Cc1c(N2CCCC2)nsc1NCc1ccccc1	> 100	> 100	> 100	> 100	> 100	> 100	> 100	> 100	> 100	> 100
COC(=O)CCc1cc(OC)c(O)c(C(Cc2ccc(OC)c(OC)c2)C(=O)OC)c1 (stereo not given)	> 100	> 100	> 100	> 100	> 100	> 100	> 100	> 100	> 100	> 100
Cc1c(C#N)c2nnn(-c3ccc(Cl)cc3)c(=O)n2c1-c1ccccc1	7.59	3.92	24.9	10.9	0.49	19.5	0.207	9.12	> 30.6	3.85
Cc1ccc2c3c1O[C@H]1c4[nH]c5ccccc5c4C[C@@]4(O)[C@@H](C2)N(C)CC[C@]314	29.8	32.3	31.8	31	25.6	30	36	33.6	31.6	39.4
C/C(CC/C(C)=N/O)=N\O	> 100	> 100	> 100	> 100	> 100	> 100	> 100	> 100	> 100	> 100
O=C(Nc1nnc(-c2ccccc2)o1)C(SC(=S)N1CCCCC1)c1ccccc1 (stereo not given)	87.5	73.9	39.3	32.1	70	> 100	97.6	96.2	> 100	42
